Reference: paper PMC11309765, “Mechanism of the blood-brain barrier modulation by cadherin peptides” (Exploration of drug science, 2024)
Entries after “also recorded” stand apart in the source; their conditions may differ. Where a SMILES comes first, the peptide text is derived from it. Bridges are numbered along the chain shown (N, C = ends).

How the values were obtained:
[1] = test system: blood-brain barrier (BBB); conditions: in-situ rat brain perfusion; cited from earlier work
[2] = molecular target: T1, EC1 domain of human E-cadherin (Homo sapiens, UniProt P12830); assay: 1H-15N HSQC NMR titration of 15N-labeled EC1 (chemical shift perturbation, CSP); type: binding
T1 construct: Strep-tag I (WSHPQFEK) (C); factor Xa cleavage site (IEGR) linker (C); made in house; host or cells: E. coli BL21(DE3), plasmid pASK-IBA6
T1 sequence (P12830 155-292): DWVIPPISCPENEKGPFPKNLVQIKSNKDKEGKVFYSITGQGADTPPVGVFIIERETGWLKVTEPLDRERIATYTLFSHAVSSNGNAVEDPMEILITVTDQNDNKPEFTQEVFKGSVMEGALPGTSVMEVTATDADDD
Excerpt: Our previous method was used to express and purify the ^15N-labeled EC1 domain [22]. Briefly, the plasmid (pASK-IBA6, Genosys, Woodland, TX) contains DNA construct of 138 amino acid residues. The EC1 domain has 110 residues connected to 28 amino acids from the EC2 domain sequence at the C-terminus tail followed by a WSHPQFEK sequence of Streptag I that is linked by an IEGR sequence for a factor Xa cleavage. Then, the plasmid was transformed into competent E. coli BL21(DE3) cells (New England Biosciences, Ipswich, MA). The cells were incubated at 37°C overnight on a plate with lysogeny broth (LB) agar containing […] ampicillin. A single colony of E. coli cells was picked and incubated in 10 mL of LB media followed by the addition of 10 μL ampicillin at 100 mg/mL concentration. Then, the mixture was incubated in an orbital shaker at 250 rpm and 37°C. ^15N-labeled NH4Cl was added to 250 mL of M9 minimal media in 1 L Erlenmeyer flask to produce the ^15N-labeled EC1 domain. A 24 μL of anhydrotetracycline (2 mg/mL; Promega Inc., Madison, WI) was spiked into the cell culture when it reached OD550 of 0.5–0.6 to induce the EC1 protein expression. Then, the cell mixture was incubated at 30°C for 6–7 h followed by cell harvesting using centrifugation at 4,500 xg. The resulting cell pellets were stored at −80°C.
For isolation of purified ^15N-EC1, E. coli cell pellets were lysed using 20,000 psi French press (Thermo Electron Corporation) in 10 mL of binding buffer. This binding buffer consists of 150 mM NaCl, 1.0 mM EDTA, 0.02% NaN3, and 100 mM Tris-HCl at pH = 8.0. The mixture was centrifuged at 21,000 xg, 4°C, and 1 h to get rid of cellular debris. The EC1 domain was in the supernatant and the Amicon Ultra protein concentrator [10 kDa molecular weight (MW) cut-off, EMD Millipore, Billerica, MA] was used to concentrate the protein upon centrifugation at 4,500 rpm, 20 min, and 4°C. […] The purity of pooled EC1 fractions was evaluated by SDS-PAGE. Protein concentration was calculated using UV spectrometry at 280 nm (coefficient absorption = 19,480 M^–1 cm^–1). […]

[3] = test system: blood-brain barrier (BBB); conditions: cited from earlier work
Excerpt: In addition, Gd-DTPA delivery to the brain was enhanced when co-administered with ADTC5 in living mice upon detection with magnetic resonance imaging (MRI). […] Different cadherin peptides produced different durations of the BBB opening for different sizes of del ...

BBB tight junctions = conditions: cited from earlier work
Excerpt: As BBBMs, the in vivo activities of ADT and HAV peptides to modulate the BBB were transient and reversible. […] Different cadherin peptides produced different durations of the BBB opening for different sizes of del ...

[4] = test system: Madin-Darby canine kidney (MDCK) cell monolayers; conditions: Val6 mutation; cited from earlier work
Excerpt: Currently, the mechanism of binding as well as the EC1 binding site of ADT peptides have not been elucidated; thus, this study was aimed at using nuclear magnetic resonance (NMR) and molecular docking experiments to determine ADTC5 binding properties (Table 1) on EC1. […] Therefore, the Val6 residue was mutated to the Glu6 or Tyr6 re ...

Q: For CC(=O)N[C@H]1CSSC[C@@H](C(N)=O)NC(=O)[C@H](C(C)C)NC(=O)[C@@H]2CCCN2C(=O)[C@@H]2CCCN2C(=O)[C@H]([C@@H](C)O)NC(=O)[C@H](CC(=O)O)NC1=O [ADTC5] (Ac-CDTPPVC-NH2; disulfide 1-7), which “delivery of various molecules to the brain” value [1] is on record?
A: enhanced the delivery of various molecules to the brain

Q: What about the “EC1 residues with largest/significant NH chemical shift perturbation” value ([2]; 1H-15N HSQC titration, pH 6.0) of the same compound?
A: One of the dramatic changes was seen for residue I4 with larger CSP compared to other residues; also recorded: In addition to the strong effect of the NH of I4 residue, significant shifts were also observed in the NHs of I38, I53, V98, D103, and F113 residues; also recorded: large CSP changes on D103, and F113 residues at the C-terminal tail; also recorded: large CSP changes were also observed at the I4, I7, and S8 residues at the N-terminus domain

Q: And the “relative binding affinity to EC1” value ([2]; comparison among ADTC5, ADTC7, ADTC9)?
A: highest binding affinity to the EC1 domain of E-cadherin compared to ADTC7 and ADTC9; also recorded: binds better to the EC1 domain compared to ADTC7 and ADTC9

Q: And the “CSP result in words” value ([2]; comparison of CSP profiles / conformational effect, 1H-15N HSQC)?
A: influences the conformation of the EC1 C-terminal tail; also recorded: All seven clusters have consistent high CSPs on active residues T97, V98, and D103; also recorded: binding of ADTC5 to EC1 may induce conformational change at the C-terminal tail; also recorded: binding of ADTC5 can cause conformational change at the N-terminal region or domain swapping region

Q: What about the “duration of paracellular porosity for Galbumin” value ([3]; 65 kDa Galbumin) of the same compound?
A: less than 20 min

Q: And the “delivery of mAb to brain” value ([3]; 150 kDa mAb)?
A: had to be administered together with 150 kDa mAb for delivering mAb to the brain

Q: What about the “Gd-DTPA delivery to the brain” value ([3]; co-administered, living mice, MRI) of the same compound?
A: enhanced

Q: And the “brain deposition of peptides, Galbumin and mAb” value ([3]; i.v., co-administered, mice, mass spectrometry, NIRF, MRI)?
A: significantly enhanced brain deposition of peptides, Gd-labeled albumin (Galbumin), and mAb

Q: What about the “duration of in vivo paracellular opening for Gd-DTPA” value ([3]; small molecule Gd-DTPA) of the same compound?
A: less than 4 h

Q: What about the “anatomical structure of BBB tight junctions” value (BBB tight junctions) of the same compound?
A: did not change

Q: And the “modulatory activity in MDCK cell monolayers” value [4]?
A: mutation of this residue reduced inhibitory activity in preventing the resealing of the paracellular pathway
